31 compounds from patent US10005767B2, “Compositions and methods for inhibition of the JAK pathway” (Rigel Pharmaceuticals, Inc., priority 2009, dated 2018) can be followed below.

The test system of the first assay is human primary T-cells, IL-2 stimulated proliferation (JAK-1 and JAK-3 dependent; reported as JAK3 activity). As to the kind of experiment: Human primary T-cell proliferation stimulated by IL-2 (Example 3). In kind it is cell-based. The settings on record: Homo sapiens, T-cell, tested under conditions described in Example 3 (IL-2 stimulated human primary T-cell proliferation); read-out: ability to inhibit JAK3 activity, IC50 range (Table V). In a few lines: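 Peripheral-blood human T-cells pre-activated via TCR/CD28, IL-2-starved overnight, then cultured 72 h at 37 °C with compound in Yssel's medium containing IL-2 (80 U/mL in cell suspension). Proliferation read as viable-cell ATP by CellTiter-Glo luminescence; reduction versus control taken as JAK pathway inhibition.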
Turning to `Cc1cnc(Nc2cnc(N3CC4CN(C(=O)C5CC5)CC4C3)c(F)c2)nc1Nc1ccc2oc(=O)[nH]c2c1` (stereo not shown) [II-53, 5-{2-[6-(5-Cyclopropanecarbonyl-hexahydro-pyrrolo[3,4-c]pyrrol-2-yl)-5-fluoro-pyridin-3-ylamino]-5-methyl-pyrimidin-4-ylamino}-3H-benzooxazol-2-one], the IC50 was < 500 nM.

Regarding `Cc1cnc(Nc2ccc(C#N)cc2)nc1Nc1ccc2oc(=O)[nH]c2c1` [Compound I-27, N4-(benzo[d]oxazol-2(3H)-on-5-yl)-N2-(4-cyanophenyl)-5-methylpyrimidine-2,4-diamine], the half-inhibitory concentration (IC50) is < 500 nM.

For `CCN1CCN(c2ncc(Nc3ncc(C)c(Nc4ccc5oc(=O)[nH]c5c4)n3)cc2F)CC1` [II-114, N4-(benzo[d]oxazolin-2(3H)-one-5-yl)-N2-[2-(4-ethylpiperazin-1-yl)-3-fluoropyridine-5-yl]-5-methyl-2,4-pyrimidinediamine], the IC50 was < 500 nM.

For `Cc1cnc(Nc2ccc(N3C[C@@H](C)NC[C@@H]3C)nc2)nc1Nc1ccc2oc(=O)[nH]c2c1` (relative stereo) [II-130, N2-[2-(trans-2,5-dimethylpiperazino)pyridin-5-yl]-5-methyl-N4-(2-oxo-2,3-dihydro-1,3-benzoxazol-5-yl)-2,4-pyrimidinediamine], the IC50 was < 500 nM.

As for `Cc1cnc(Nc2ccc(N3CCOCC3)nc2)nc1Nc1cc(C)c2oc(=O)[nH]c2c1` [II-73, 7-methyl-5-(5-methyl-2-(6-morpholinopyridin-3-ylamino)pyrimidin-4-ylamino)benzo[d]oxazol-2(3H)-one], the half-inhibitory concentration (IC50) is < 500 nM.

As for `CN1CCN(c2ccc(Nc3ncc(C(F)(F)F)c(Nc4ccc5oc(=O)[nH]c5c4)n3)cn2)CC1` [II-85, 5-(2-(6-(4-methylpiperazin-1-yl)pyridin-3-ylamino)-5-(trifluoromethyl)pyrimidin-4-ylamino)benzo[d]oxazol-2(3H)-one], the IC50 was < 500 nM.

In the case of `CC(=O)c1cccc(Nc2ncc(C)c(Nc3ccc4oc(=O)[nH]c4c3)n2)c1` [Compound I-130, 5-[2-(3-Acetyl-phenylamino)-5-methyl-pyrimidin-4-ylamino]-3H-benzooxazol-2-one], the half-inhibitory concentration (IC50) was < 500 nM.

Consider `CCN(CC)CCNC(=O)c1ccc(Nc2ncc(C)c(Nc3ccc4oc(=O)[nH]c4c3)n2)cc1` [Compound I-127, N-(2-Diethylamino-ethyl)-4-[5-methyl-4-(2-oxo-2,3-dihydro-benzooxazol-5-ylamino)-pyrimidin-2-ylamino]-benzamide], for which the half-inhibitory concentration (IC50) was < 500 nM.

As to `Cc1cnc(Nc2cc(F)cc(N3CCN(C)CC3)c2)nc1Nc1ccc2oc(=O)[nH]c2c1` [Compound I-241, 5-(2-(3-fluoro-5-(4-methylpiperazin-1-yl)phenylamino)-5-methylpyrimidin-4-ylamino)benzo[d]oxazol-2(3H)-one], the IC50 is < 500 nM.

Turning to `Cc1cnc(Nc2cccc(C(=O)N3CCCC3)c2)nc1Nc1ccc2oc(=O)[nH]c2c1` [Compound I-246, 5-(5-methyl-2-(3-(pyrrolidine-1-carbonyl)phenylamino)pyrimidin-4-ylamino)benzo[d]oxazol-2(3H)-one], the IC50 is < 500 nM.

Turning to `Cc1cnc(Nc2ccc(N3CCC(NC(=O)OC(C)(C)C)C3)nc2)nc1Nc1ccc2oc(=O)[nH]c2c1` (stereo not shown) [II-86, tert-butyl 1-(5-(5-methyl-4-(2-oxo-2,3-dihydrobenzo[d]oxazol-5-ylamino)pyrimidin-2-ylamino)pyridin-2-yl)pyrrolidin-3-ylcarbamate], the half-inhibitory concentration (IC50) was < 500 nM.

On to `Cc1cnc(Nc2cccc(C(C)NCc3ccccc3)c2)nc1Nc1ccc2oc(=O)[nH]c2c1` (stereo not shown) [Compound I-213, 5-(2-(3-(1-(benzylamino)ethyl)phenylamino)-5-methylpyrimidin-4-ylamino)benzo[d]oxazol-2(3H)-one], for which the 50% inhibitory concentration (IC50) is < 500 nM.

`Cc1cnc(Nc2ccc3c(c2)CC(=O)N3C)nc1Nc1ccc2oc(=O)[nH]c2c1` [IV-27, 5-(5-methyl-2-(1-methyl-2-oxoindolin-5-ylamino)pyrimidin-4-ylamino)benzo[d]oxazol-2(3H)-one]: the IC50 is < 500 nM.

For `COc1cc(Nc2ncc(C)c(Nc3ccc4oc(=O)[nH]c4c3)n2)cc(Cl)c1OC` [Compound I-458, 5-(2-(3-chloro-4,5-dimethoxyphenylamino)-5-methylpyrimidin-4-ylamino)benzo[d]oxazol-2(3H)-one], the IC50 was < 500 nM.

For `Cc1cnc(Nc2ccc3cnccc3c2)nc1Nc1ccc2oc(=O)[nH]c2c1` [IV-53, 5-[2-(Isoquinolin-6-ylamino)-5-methyl-pyrimidin-4-ylamino]-3H-benzooxazol-2-one], the IC50 lay within 5000 to 10000 nM.

Consider `Cc1cnc(Nc2cnc(N3CC4CC3CN4CC3CC3)c(F)c2)nc1Nc1ccc2oc(=O)[nH]c2c1` (stereo not shown) [II-54, 5-{2-[6-(5-Cyclopropylmethyl-2,5-diaza-bicyclo[2.2.1]hept-2-yl)-5-fluoro-pyridin-3-ylamino]-5-methyl-pyrimidin-4-ylamino}-3H-benzooxazol-2-one], for which the IC50 is < 500 nM.

With `Cc1ccc(Nc2ncc(C)c(Nc3ccc4oc(=O)[nH]c4c3)n2)cc1S(C)(=O)=O` [Compound I-239, 5-(5-methyl-2-(4-methyl-3-(methylsulfonyl)phenylamino)pyrimidin-4-ylamino)benzo[d]oxazol-2(3H)-one], the IC50 was < 500 nM.

For `Cc1cnc(Nc2ccc(C(=O)N3CCNCC3)nc2)nc1Nc1ccc2oc(=O)[nH]c2c1` [II-45, 5-{5-Methyl-2-[6-(piperazine-1-carbonyl)-pyridin-3-ylamino]-pyrimidin-4-ylamino}-3H-benzooxazol-2-one], the IC50 is < 500 nM.

With `Cc1cnc(Nc2ccc3c(c2)[nH]c(=O)n3C)nc1Nc1ccc2oc(=O)[nH]c2c1` [IV-28, 5-(5-methyl-2-(1-methyl-2-oxo-2,3-dihydro-1H-benzo[d]imidazol-5-ylamino)pyrimidin-4-ylamino)benzo[d]oxazol-2(3H)-one], the IC50 was < 500 nM.

Staying with this assay, now noted: tested under conditions described in Example 3 (IL-2 stimulated human primary T-cell proliferation); read-out: ability to inhibit JAK3 activity, IC50 range (Table V).
As to `CS(=O)(=O)c1cccc(Nc2ncc(F)c(Nc3ccc4oc(=O)[nH]c4c3)n2)c1` [Compound I-20], the concentration for half-maximal inhibition (IC50) was < 500 nM.

For the compound `CNC(=O)c1cc(Nc2ncc(C)c(Nc3ccc4oc(=O)[nH]c4c3)n2)ccc1N1CCN(C)CC1` [Compound I-323, 5-methyl-N2-[3-methylaminocarbonyl-4-(4-methylpiperazino)]phenyl-N4-(2-oxo-2,3-dihydro-1,3-benzoxazol-5-yl)-2,4-pyrimidinediamine], the half-inhibitory concentration (IC50) is < 500 nM.

Regarding `Cc1cnc(Nc2ccc(N3CCNCC3)cc2)nc1Nc1ccc2oc(=O)[nH]c2c1` [Compound I-332, 5-methyl-N4-(2-oxo-2,3-dihydro-1,3-benzoxazol-5-yl)-N2-(4-piperazino)phenyl-2,4-pyrimidinediamine], the IC50 was < 500 nM.

`Cc1cnc(Nc2ccc(N3CCN(C)CC3)c(C(N)=O)c2)nc1Nc1ccc2oc(=O)[nH]c2c1` [Compound I-316, N2-[3-aminocarbonyl-4-(4-methylpiperazino)]phenyl-5-methyl-N4-(2-oxo-2,3-dihydro-1,3-benzoxazol-5-yl)-2,4-pyrimidinediamine]: the half-maximal inhibitory concentration (IC50) was < 500 nM.

`Cc1cnc(Nc2cccc(S(C)(=O)=O)c2)nc1Nc1ccc2oc(=O)n(COP(=O)(O)O)c2c1` [Compound I-33, N4-(3-phosphorylmethylbenzo[d]oxazol-2(3H)-on-5-yl)-N2-((3-methylsulfonyl)phenyl)-5-methylpyrimidine-2,4-diamine]: the half-maximal inhibitory concentration (IC50) is < 500 nM.

For the compound `Cc1cnc(Nc2ccc3c(n2)NC(=O)CO3)nc1Nc1ccc2oc(=O)[nH]c2c1` [IV-47, 5-methyl-N4-(2-oxo-2,3-dihydro-1,3-benzoxazol-5-yl)-N2-(2H-pyrido[3,2-b][1,4]oxazin-3 (4H)-one-6-yl)-2,4-pyrimidinediamine], the IC50 is > 10000 nM.

On to `Cc1cnc(Nc2cc(C)c(C)c(C)c2)nc1Nc1ccc2oc(=O)n(COP(=O)(OC(C)(C)C)OC(C)(C)C)c2c1` [Compound I-405, N4-{3-[bis(1,1-dimethylethoxy)]phosphinyloxymethyl-2-oxo-2,3-dihydro-1,3-benzoxazol-5-yl}-N2-(3,4,5-trimethyl)phenyl-5-methyl-2,4-pyrimidinediamine], for which the IC50 lay within 5000 to 10000 nM.

On to `Cc1cnc(Nc2ccc3c(c2)CN(C(=O)OC(C)(C)C)C3)nc1Nc1ccc2oc(=O)[nH]c2c1` [III-3, N4-(benzo[d]oxazol-2(3H)-on-5-yl)-N2-(2-tert-butoxoxycarbonylisoindolin-5-yl)-5-methylpyrimidine-2,4-diamine], for which the 50% inhibitory concentration (IC50) was < 500 nM.

For the compound `Cc1cnc(Nc2cc(F)c(OC(C)(C)C(N)=O)c(F)c2)nc1Nc1ccc2oc(=O)[nH]c2c1` [Compound I-395, N2-[4-(1-aminocarbonyl-1-methyl)ethoxy-3,5-difluoro]phenyl-5-methyl-N4-(2-oxo-2,3-dihydro-1,3-benzoxazol-5-yl)-2,4-pyrimidinediamine], the IC50 is < 500 nM.

With `Cc1cnc(Nc2cccc(S(=O)(=O)NC(C)C)c2)nc1Nc1ccc2oc(=O)[nH]c2c1` [Compound I-114, N4-(benzoxazolin-2-on-5-yl)-N2-[3-N-(i-propyl)aminosulfonylphenyl]-5-methylpyrimidine-2,4-diamine], the concentration for half-maximal inhibition (IC50) was < 500 nM.

Regarding `Cc1cnc(Nc2ccc(SC(F)(F)F)cc2)nc1Nc1ccc2oc(=O)[nH]c2c1` [Compound I-367, N2-(4-trifluoromethylthio)phenyl-5-methyl-N4-(2-oxo-2,3-dihydro-1,3-benzoxazol-5-yl)-2,4-pyrimidinediamine], the IC50 is < 500 nM.

Regarding `Cc1cnc(Nc2ccc(NS(C)(=O)=O)cc2)nc1Nc1ccc2[nH]c(=O)oc2c1` [Compound I-103, N2-((4-methylsulfonylamino)phenyl)-N4-(2-oxo-2,3-dihydrobenzo[d]oxazol-6-yl)-5-methylpyrimidine-2,4-diamine], the IC50 is > 10000 nM.
